Data: paper PMC10250256, “A radiohybrid theranostics ligand labeled with fluorine-18 and lutetium-177 for fibroblast activation protein-targeted imaging and radionuclide therapy” (European Journal of Nuclear Medicine and Molecular Imaging, 2023)
Values joined by “and” are separate entries in the source; they are usually repeats but may differ in a detail not shown here. Equal values may be shown once. “Also recorded” adds a separate entry of the source. Read-outs that look alike come from different tables or passages of the source.

Legend:
HT-1080-FAP tumor slide = biological target: T1, HT-1080-FAP tumor slide (Homo sapiens, UniProt Q12884); test: in vitro autoradiography of HT-1080-FAP tumor slides; details: unlabeled 20 at 130 μM
T1 construct: from tissue; host or cells: slides of HT-1080-FAP xenograft tumor (transfected human fibrosarcoma cells grown subcutaneously in BALB/C-nu/nu mice)
T1 sequence (Q12884 1-760): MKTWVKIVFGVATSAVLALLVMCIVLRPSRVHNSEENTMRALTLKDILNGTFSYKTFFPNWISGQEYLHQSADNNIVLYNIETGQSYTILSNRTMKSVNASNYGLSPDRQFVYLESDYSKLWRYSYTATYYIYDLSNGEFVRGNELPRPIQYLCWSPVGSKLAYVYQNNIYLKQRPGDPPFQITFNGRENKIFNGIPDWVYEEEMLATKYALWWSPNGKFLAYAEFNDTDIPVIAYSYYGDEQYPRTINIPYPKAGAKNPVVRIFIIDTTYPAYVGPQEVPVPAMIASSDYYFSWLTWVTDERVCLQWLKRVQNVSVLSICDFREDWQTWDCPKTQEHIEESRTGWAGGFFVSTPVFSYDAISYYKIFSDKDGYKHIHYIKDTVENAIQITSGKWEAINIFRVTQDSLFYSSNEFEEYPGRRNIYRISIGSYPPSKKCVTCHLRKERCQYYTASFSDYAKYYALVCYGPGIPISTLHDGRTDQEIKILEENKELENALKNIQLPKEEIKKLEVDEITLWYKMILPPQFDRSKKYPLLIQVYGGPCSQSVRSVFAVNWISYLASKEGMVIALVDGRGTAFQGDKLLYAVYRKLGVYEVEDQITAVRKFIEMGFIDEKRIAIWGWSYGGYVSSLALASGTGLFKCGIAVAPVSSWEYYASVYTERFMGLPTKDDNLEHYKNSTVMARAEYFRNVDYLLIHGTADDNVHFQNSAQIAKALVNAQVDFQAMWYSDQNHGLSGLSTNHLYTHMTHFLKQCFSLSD
Method: The slides of HT-1080-FAP tumor were incubated with [^18F]21 for 1 h, exposed on a phosphoscreen, and subsequently scanned on a Beckman Coulter FLA7000IP Typhoon storage phosphorimager. Immunohistochemical staining of FAP was performed on the adjacent section.

FAP = biological target: T2, FAP (Homo sapiens, UniProt Q12884); test: competitive FAP binding assay against [^177Lu]Lu-FAPI-04 in HT-1080-FAP cells
T2 construct: expressed in transfected cells; host or cells: HT-1080 human fibrosarcoma cells (HT-1080-FAP)
T2 sequence (Q12884 1-760): T1 sequence (Q12884 1-760)

HT-1080 cells = test: cell uptake in HT-1080 (FAP negative) cells; format: cell-based, human
Method: (§1) The human fibrosarcoma cell lines HT-1080 and HT-1080-FAP transferred with human FAP gene were both cultured in Dulbecco modified Eagle medium supplemented with 10% fetal bovine serum (Gibco, USA) at 37℃/5% carbon dioxide. For cell uptake experiments, HT-1080-FAP cells (~ 1 × 10^5/well) or HT-1080 (~ 1 × 10^5/well) were seeded in 24-well plates for 24–48 h and incubated at 37℃ with radiolabeled compounds (74 kBq/well) in 0.5 mL of serum-free medium for indicated times. Non-specific binding was determined by co-incubating with 100 μM FAP inhibitor UAMC1110. For competitive FAP binding assays, HT-1080-FAP cells were incubated with [^177Lu]Lu-FAPI-04 (74 kBq/well) in the presence of different concentrations (10^−3–10^4 nM) of competing non-radioactive ligands. For internalization experiments, the radiotracer-incubated cells were washed twice with PBS (pH 7.4), followed by glycine–HCl (0,05 M, pH = 2.8) solution to distinguish between cell surface–bound (acid-releasable) and internalized (acid-resistant) radioligand. For efflux experiments, cells were preincubated with [^177Lu]21 or [^177Lu]Lu-FAPI-04 for 1 h and subsequently incubated at 37 °C in a medium free of radiotracer and serum for different time periods. […] Cell lysates were collected and the radioactivity was determined using a γ-counter.

HT-1080-FAP cells [1] = test: internalization experiments in HT-1080-FAP cells; format: cell-based, human; details: 10 min
Method: as §1

[2] = in vivo stability in ICR mice, blood samples (radio-HPLC)
Method: (§2) [^18F]21 or [^177Lu]21 (50 μCi, 10 μL) was added to PBS (90 μL) or murine serum (90 μL) and the mixture was incubated at 37 °C for a certain time ([^18F]21: 2 h, [^177Lu]21: 8 d). The PBS mixture was injected directly into the radio-HPLC for analysis. The murine serum was precipitated with 0.1 mL of acetonitrile and centrifuged (10,000 rpm, 5 min). The supernatant was measured and analyzed by the radio-HPLC to determine the stability. For in vivo stability study, the radio tracers were injected into the tail vein of ICR mice and samples of blood were collected after a certain time post injection (pi) ([^18F]21: 4 h, [^177Lu]21: 9 h). The plasma proteins were precipitated using an equal volume of acetonitrile and centrifuged (10,000 rpm, 5 min). The RCP of radio tracer in supernatants were analyzed and quantified by radio-HPLC. The radio-HPLC method was as follows: A: 0.1% TFA in H2O, B: ACN, 0–10 min, 0–100% B. The flow rate was 1 mL/min, and the C18 column (4.6 × 150 mm, 5 μm, ZORBAX, Agilent) was used. When using HPLC to assess the stability of [^177Lu]21, the effluent was collected every 30 s due to its less radioactivity, and samples were measured by an automatic γ-counter (2480 Wizard2, Perkin Elmer). The counted samples were plotted as intensity (cpm) against fraction.

[3] = in vitro stability in PBS or murine serum (radio-HPLC); format: in vitro ADME
Method: as §2

HT-1080-FAP xenograft = test: micro-PET/CT imaging, HT-1080-FAP xenograft; format: in vivo, BALB/C-nu/nu mice
Method: (§3) All animal experiments were conducted in compliance with a protocol approved by the First Affiliated Hospital of Sun Yat-sen University Institutional Animal Care and Use Committee. BALB/C-nu/nu mice (4–5-week old with body weight of 16–22 g) were purchased from GemPharmatech Co., Ltd. Mice were housed under standard conditions with temperature and light control (12-h-light/12-h-dark cycle) and had free access to water and food. For the tumor model, HT-1080-FAP or HT-1080 cells (5 × 10^6) were subcutaneously injected into the right or left flank of nude mice, respectively. As the tumor diameter reached 3–4 mm, mice were treated with radioligands. Micro-PET and SPECT imaging studies, as well as biodistribution, were conducted when the tumor diameter reached 5–10 mm.
(§4) The dynamic micro-PET/CT (Siemens Inveon) imaging studies were conducted to evaluate the pharmacokinetics. The HT-1080-FAP and HT-1080 tumor-bearing mice were injected with 3.7–7.4 MBq of [^18F]21 or [^68 Ga]Ga-FAPI-04 via tail vein. […] Dynamic PET scans were performed from 0 to 120 min with image reconstruction of every 5 min. Micro-PET imaging was reconstructed using a three-dimensional ordered-subset expectation maximum (OSEM) algorithm (Siemens, Erlangen, Germany). The images and regions of interest (ROIs) were produced using Inveon Research Workplace (Siemens, Erlangen, Germany).

HT-1080 xenograft = test: micro-PET/CT imaging, FAP-negative HT-1080 xenograft; format: in vivo, BALB/C-nu/nu mice; details: dynamic PET 0-120 min
Method: as §3, §4

HT-1080-FAP cells [4] = test: cell uptake in HT-1080-FAP cells; format: cell-based, human
Method: The human fibrosarcoma cell lines HT-1080 and HT-1080-FAP transferred with human FAP gene were both cultured in Dulbecco modified Eagle medium supplemented with 10% fetal bovine serum (Gibco, USA) at 37℃/5% carbon dioxide. For cell uptake experiments, HT-1080-FAP cells (~ 1 × 10^5/well) or HT-1080 (~ 1 × 10^5/well) were seeded in 24-well plates for 24–48 h and incubated at 37℃ with radiolabeled compounds (74 kBq/well) in 0.5 mL of serum-free medium for indicated times. Non-specific binding was determined by co-incubating with 100 μM FAP inhibitor UAMC1110. For competitive FAP binding assays, HT-1080-FAP cells were incubated with [^177Lu]Lu-FAPI-04 (74 kBq/well) in the presence of different concentrations (10^−3–10^4 nM) of competing non-radioactive ligands. For internalization experiments, the radiotracer-incubated cells were washed twice with PBS (pH 7.4), followed by glycine–HCl (0,05 M, pH = 2.8) solution to distinguish between cell surface–bound (acid-releasable) and internalized (acid-resistant) radioligand. For efflux experiments, cells were preincubated with [^177Lu]21 or [^177Lu]Lu-FAPI-04 for 1 h and subsequently incubated at 37 °C in a medium free of radiotracer and serum for different time periods. The medium was removed and the cells were washed twice with cold PBS (pH 7.4) and subsequently lysed with 0.5 mL of NaOH (1 M). Cell lysates were collected and the radioactivity was determined using a γ-counter.

[5] = 60 min pi, FAPI-04 25 μg/animal co-injected

CC(C)(C)[Si](F)(c1ccc(C(=O)NC[C@H](NC(=O)CCC(C(=O)O)N2CCN(CC(=O)O)CCN(CC(=O)O)CCN(CC(=O)O)CC2)C(=O)NC[C@H]2CC[C@H](C(=O)NCCCOc3ccc4nccc(C(=O)NCC(=O)N5CC(F)(F)C[C@H]5C#N)c4c3)CC2)cc1)C(C)(C)C (stereo partly drawn) [Compound 20]
blocking of [^18F]21 autoradiography signal (HT-1080-FAP tumor slide): could be blocked by unlabeled 20
IC50 (FAP): 2.29 ± 1.12 nM

CC(C)(C)[Si](F)(c1ccc(C(=O)NCC(NC(=O)CCC(C(=O)O)N2CCN(CC(=O)[O-])CCN(CC(=O)[O-])CCN(CC(=O)[O-])CC2)C(=O)NCC2CCC(C(=O)NCCCOc3ccc4nccc(C(=O)NCC(=O)N5CC(F)(F)CC5C#N)c4c3)CC2)cc1)C(C)(C)C.[Lu+3] (stereo not drawn) [Compound 21]
IC50 (FAP; HT-1080-FAP cells, competition with [^177Lu]Lu-FAPI-04, read-out: IC50 (binding affinity towards FAP)): 2.53 ± 1.87 nM

CC(C)(C)[Si]([18F])(c1ccc(C(=O)NCC(NC(=O)CCC(C(=O)O)N2CCN(CC(=O)[O-])CCN(CC(=O)[O-])CCN(CC(=O)[O-])CC2)C(=O)NCC2CCC(C(=O)NCCCOc3ccc4nccc(C(=O)NCC(=O)N5CC(F)(F)CC5C#N)c4c3)CC2)cc1)C(C)(C)C.[Lu+3] (stereo not drawn) [[^18F]21]
cell uptake in FAP negative cells (HT-1080 cells): Almost no uptakes
internalization rate (HT-1080-FAP cells [1]): > 80%
metabolization in blood samples (radio-HPLC) ([2]; ICR mice, within 4 h pi): little evidence of any metabolization
in vivo stability ([2]; as summarised in discussion): > 90%
time stable in vitro ([3]; 37 °C, PBS or murine serum): at least 2 h
in vitro stability ([3]; as summarised in discussion): > 90%
tumor uptake (PET ROI), without competitor (HT-1080-FAP xenograft; 60 min pi): 14.13 ± 3.19 %ID/g
tumor uptake (PET ROI), blocking with FAPI-04 (HT-1080-FAP xenograft; [5]): 3.8 ± 0.89 %ID/g
uptake in joints, blocking with FAPI-04 (HT-1080-FAP xenograft; [5]): blocked significantly
fold higher tumor uptake than [^68 Ga]Ga-FAPI-04 (HT-1080-FAP xenograft; 2 h pi): 14.9 fold
HT-1080-FAP tumor uptake (PET) (HT-1080-FAP xenograft; 2 h pi, dynamic PET): 10.04 %ID/g
FAP-negative HT-1080 tumor uptake (PET) (HT-1080 xenograft): did not show any uptakes
cell uptake (HT-1080-FAP cells [4]; 10 min incubation): 60.18% ± 3.84
cell uptake (HT-1080-FAP cells [4]; 1 h incubation): 86.43% ± 5.47 and 86.43% ± 5.46
cell uptake with competitor (HT-1080-FAP cells [4]; co-incubation with 100 μM FAP inhibitor UAMC1110): could be blocked by FAP inhibitor; also recorded: could be blocked by UAMC1110
